The values below come from patent publication US9505740B2, “Cyclic amine derivative and pharmaceutical use thereof” (Toray Industries, Inc., priority 2013, dated 2016).

The structures appear in SMILES notation. Counter-ions that a name gives are not always drawn.

The subject of assay [1] is fibromyalgia syndrome model rats. The assay is described as follows: Fibromyalgia syndrome model in rats (acidic saline), allodynia by von Frey filament. The format is in vivo, rat. The conditions noted are these: vs acidic saline-vehicle group. An excerpt:
Using a fibromyalgia syndrome model in rats by which fibromyalgia syndrome can be evaluated, the analgesic action of a cyclic amine derivative (I) or a prodrug thereof or a pharmacologically acceptable salt thereof was investigated.
As the cyclic amine derivative (I) or a pharmacologically acceptable salt thereof, the compound of Example 13 was used for evaluation. As the prodrug of a cyclic amine derivative (I) or a pharmacologically acceptable salt thereof, the compound of Example 38 was used for evaluation. The compound of Example 38 is a hydrochloride of a prodrug obtained by esterifying the carboxyl group of the compound of Example 39 with an ethyl group.
To prepare a fibromyalgia syndrome model rat (Sluka et al., Journal of Pharmacology and Experimental Therapeutics, vol. 302, p. 1146-50, 2002; Nagakura et al., Pain, vol. 146, p. 26-33, 2009; Sluka et al., Pain, vol. 146, p. 3-4, 2009), which is generally employed widely in basic research for fibromyalgia syndrome, acidic saline (100 μL) adjusted to pH4.0 was intramuscularly injected to the gastrocnemius muscle of the right hind paw of Crl: CD(SD) rat (6 to 7 weeks old, male; from CHARLES RIVER LABORATORIES JAPAN, INC.) under continuous inhalation anesthesia with isoflurane, twice (once in each day of Day 1 and Day 6, wherein Day 1 was the date on which the acidic saline was initially administrated). The rats thus prepared were raised in a breeding room controlled at an indoor temperature of 21 to 25° C. and an indoor humidity of 40 to 70% under the conditions of voluntary intake of food and water. In the same manner, rats to which physiological saline in place of acidic saline was intramuscularly injected were raised. The rats thus raised and not afflicted with fibromyalgia syndrome (“physiological saline-vehicle” group in FIGS. 23 and 24) were also used in the experiment.
Day 7 after the initial administration of acidic saline, allodynia in each rat was measured. […] Note that, measurement of allodynia was performed by use of a von Frey filament (from North Coast Medical) in accordance with the method described in a known literature (Chaplan et al., Journal of Neuroscience Methods, vol. 53, p. 55-63, 1994). […]
The compound of Example 13 (3 and 10 mg/kg) was dissolved in physiological saline and then administered (intravenous administration) to fibromyalgia syndrome model rats through the tail vein (“acidic saline—the compound of Example 13” in FIG. 23). […] In thirty minutes after the intravenous administration, allodynia in individual rats was measured to evaluate an analgesic action. […]

Assay [2] has as its system mouse partial sciatic nerve ligation model. The assay can be described thus: Mouse partial sciatic nerve ligation model (Seltzer model), von Frey test. The conditions noted are these: oral administration; Example 8 10 mg/kg (Day 7), Example 38 0.1 to 10 mg/kg (Day 8), pregabalin 10 mg/kg; 1, 2 and 3 hours after administration; vs partial sciatic nerve ligation+distilled water, p<0.05. The format is in vivo. An excerpt: Using a partial sciatic nerve ligation model (Seltzer model) in mice by which neuropathic pain can be evaluated, the analgesic action of a cyclic amine derivative (I) or a prodrug thereof or a pharmacologically acceptable salt thereof was investigated.
As the cyclic amine derivative (I) or a pharmacologically acceptable salt thereof, the compounds of Example 2, 4, 6, 8, 10, 12, 13, 15, 18, 22, 25, 27, 29, 31, 33, 66, 68 or 70 was used for evaluation. As the prodrug of the cyclic amine derivative (I) or a pharmacologically acceptable salt thereof, the compound of Example 38 was used for evaluation. The compound of Example 38 is a hydrochloride of a prodrug obtained by esterifying the carboxyl group of the compound of Example 39 with an ethyl group.
The mouse partial sciatic nerve ligation model was prepared in accordance with the method of Seltzer et al. (Malmberg et al., Pain, vol. 76, p. 215-222, 1998). • Slc: ICR mice (5 weeks old, male; from Japan SLC, Inc.) or Crl: CD1 (ICR) mice (5 weeks old, male; from CHARLES RIVER LABORATORIES JAPAN, INC.) were anesthetized with sodium pentobarbital (70 mg/kg, intraperitoneal administration). The sciatic nerve at the femoral region of the right hind paw of each mouse was exposed and triply ligated tightly with silk suture of 8-0 (from NATSUME […]., LTD.) under a stereomicroscope so that only half thickness of the nerve was trapped in the ligature. A group of mice thus treated was designated as a partial sciatic nerve ligation group. A group of mice whose sciatic nerve was just exposed and not ligated was designated as a sham surgery group.
Evaluation of neuropathic pain (hereinafter referred to as von Frey test) was performed as follows. Mice were conditioned for at least two hours in an acrylic cage for measurement (from NATSUME […]. LTD.) placed on a wire net. […]

For assay [3] the test system is unchanged. The assay is described as above. The format is in vivo. Conditions: Day 7, vs physiological saline group.
Setting [4] is: intravenous administration, Example 13 3 and 10 mg/kg, pregabalin 10 mg/kg, 30 minutes after administration.
Setting [5] is: oral administration, 10 mg/kg, one hour and three hours after administration, p<0.05.
[6] abbreviates: intravenous administration (tail vein), Examples 2, 4: 0.1 to 10 mg/kg, 13: 0.01 to 1 mg/kg, 18, 22: 0.1 and 1 mg/kg, 25, 27, 29, 31, 33, 66, 68, 70: 0.1 mg/kg, pregabalin 1 or 3 mg/kg.

As to `CC(C)C[C@H](CN)CC(=O)O` [pregabalin, reference compound], the “allodynia, 50% response threshold (mean value of the right hind paw and the left hind paw)” value (“allodynia, 50% response threshold” below) in assay [1] (setting [4]) and in assay [1] (setting [5]) was “statistically significantly improved” in each case. The “analgesic action, total score in the von Frey test” value (shortened to “analgesic action, total score”) in assay [2] and in assay [3] (setting [6]) was “statistically significant analgesic action” in each case.

As to `Cn1ccnc1CCC(=O)N1CCC(N)CC1` [Example 8, 1-(4-aminopiperidin-1-yl)-3-(1-methyl-1H-imidazol-2-yl)propan-1-one hydrochloride], in assay [2], the “analgesic action, total score” value was “statistically significant analgesic action”.

Regarding `CCOC(=O)Cn1ccnc1CCC(=O)N1CCC(N(C)C)CC1` [Example 38, ethyl 2-(2-(3-(4-(dimethylamino)piperidin-1-yl)-3-oxopropyl)-1H-imidazol-1-yl)acetate hydrochloride], the “allodynia, 50% response threshold” value in assay [1] (setting [5]) is reported as “statistically significantly improved”. The “analgesic action, total score” value in assay [2] is reported as “statistically significant analgesic action”.

Consider `CN(C)C1CCN(C(=O)CCc2nccn2CC(=O)O)CC1` [Example 13, 2-(2-(3-(4-(dimethylamino)piperidin-1-yl)-3-oxopropyl)-1H-imidazol-1-yl)acetic acid hydrochloride], for which the “allodynia, 50% response threshold” value in assay [1] (setting [4]) is “statistically significantly improved”. Moreover, the “analgesic action, total score” value is recorded as “statistically significant analgesic action” in assay [3] (setting [6]); “statistically significant analgesic action” in assay [3] (intraventricular administration, 10 μg/site, 15, 30 and 60 minutes after administration, p<0.05).
